# ChEMBL document CHEMBL5465560, “Selectivity Literature for EUbOPEN Chemogenomic Library” (2024)
# Legend:
# [1] = target: T1, Serine/threonine-protein kinase DCLK1 (Homo sapiens) (UniProt O15075); assay: Selectivity interaction (KinomeScan (DiscoverX)) EUB0000595a DCLK1; details: at 10 µM
# T1 sequence (whole entry): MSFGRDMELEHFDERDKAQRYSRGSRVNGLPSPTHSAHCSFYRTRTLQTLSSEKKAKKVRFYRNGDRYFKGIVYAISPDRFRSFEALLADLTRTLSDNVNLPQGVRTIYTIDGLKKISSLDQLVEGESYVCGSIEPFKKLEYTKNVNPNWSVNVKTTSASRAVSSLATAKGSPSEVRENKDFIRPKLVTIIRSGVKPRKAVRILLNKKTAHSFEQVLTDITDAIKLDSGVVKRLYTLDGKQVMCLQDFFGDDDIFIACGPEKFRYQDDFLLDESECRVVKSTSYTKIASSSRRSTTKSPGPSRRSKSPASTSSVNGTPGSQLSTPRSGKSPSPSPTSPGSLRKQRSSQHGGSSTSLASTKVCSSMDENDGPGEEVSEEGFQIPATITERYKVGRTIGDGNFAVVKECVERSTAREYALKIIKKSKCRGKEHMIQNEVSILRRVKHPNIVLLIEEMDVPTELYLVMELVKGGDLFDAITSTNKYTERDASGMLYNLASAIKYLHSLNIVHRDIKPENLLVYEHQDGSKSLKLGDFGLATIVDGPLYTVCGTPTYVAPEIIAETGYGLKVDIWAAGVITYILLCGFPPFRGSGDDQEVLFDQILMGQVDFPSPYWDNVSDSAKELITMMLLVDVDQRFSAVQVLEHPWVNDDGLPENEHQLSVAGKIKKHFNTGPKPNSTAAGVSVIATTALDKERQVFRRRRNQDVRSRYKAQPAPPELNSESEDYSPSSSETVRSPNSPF
# [2] = target: Receptor tyrosine-protein kinase erbB-3 (Homo sapiens) (UniProt P21860); assay: Selectivity interaction (KinomeScan (DiscoverX)) EUB0000045b ERBB3
# Receptor tyrosine-protein kinase erbB-3 (Homo sapiens), sequence (P21860 whole entry): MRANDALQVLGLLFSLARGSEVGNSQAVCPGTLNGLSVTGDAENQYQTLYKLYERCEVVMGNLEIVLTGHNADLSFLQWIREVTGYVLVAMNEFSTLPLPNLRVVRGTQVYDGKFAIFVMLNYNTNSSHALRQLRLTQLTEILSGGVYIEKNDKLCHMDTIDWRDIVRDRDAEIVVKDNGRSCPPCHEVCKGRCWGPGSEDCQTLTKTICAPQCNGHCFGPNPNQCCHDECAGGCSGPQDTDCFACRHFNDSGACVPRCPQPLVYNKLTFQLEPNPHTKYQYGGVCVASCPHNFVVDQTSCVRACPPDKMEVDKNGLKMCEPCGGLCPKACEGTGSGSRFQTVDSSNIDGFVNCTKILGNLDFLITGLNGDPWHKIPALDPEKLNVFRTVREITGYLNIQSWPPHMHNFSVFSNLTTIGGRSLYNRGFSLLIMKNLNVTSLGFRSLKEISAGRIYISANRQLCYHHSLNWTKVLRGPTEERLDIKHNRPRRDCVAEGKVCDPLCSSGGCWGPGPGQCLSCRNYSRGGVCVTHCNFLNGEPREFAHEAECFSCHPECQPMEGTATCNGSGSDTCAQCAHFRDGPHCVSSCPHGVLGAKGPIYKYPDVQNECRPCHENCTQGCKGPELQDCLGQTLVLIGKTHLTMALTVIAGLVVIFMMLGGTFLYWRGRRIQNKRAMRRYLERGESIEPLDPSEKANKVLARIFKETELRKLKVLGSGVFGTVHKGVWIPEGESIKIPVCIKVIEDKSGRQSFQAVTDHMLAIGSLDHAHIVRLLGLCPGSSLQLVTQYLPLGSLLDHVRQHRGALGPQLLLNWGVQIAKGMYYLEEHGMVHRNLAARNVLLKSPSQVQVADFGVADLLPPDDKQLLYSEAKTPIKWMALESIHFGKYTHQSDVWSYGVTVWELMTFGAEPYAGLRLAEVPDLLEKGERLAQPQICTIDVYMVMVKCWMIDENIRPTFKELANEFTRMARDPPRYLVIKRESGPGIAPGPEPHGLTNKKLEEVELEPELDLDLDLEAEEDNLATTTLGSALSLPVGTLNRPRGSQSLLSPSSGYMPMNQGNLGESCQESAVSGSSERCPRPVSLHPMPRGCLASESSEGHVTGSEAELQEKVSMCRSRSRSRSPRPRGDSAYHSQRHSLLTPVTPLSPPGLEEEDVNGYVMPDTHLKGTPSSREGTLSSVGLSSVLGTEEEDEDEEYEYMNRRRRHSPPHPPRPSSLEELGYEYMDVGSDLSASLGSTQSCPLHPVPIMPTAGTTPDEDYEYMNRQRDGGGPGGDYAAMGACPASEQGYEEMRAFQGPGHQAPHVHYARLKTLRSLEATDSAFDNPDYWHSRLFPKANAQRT
# [3] = target: T2, NUAK family SNF1-like kinase 2 (Homo sapiens) (UniProt Q9H093); assay: Selectivity interaction (LanthaScreen Eu Kinase Binding Assay) EUB0001632a NUAK2; details: at 10 µM
# T2 sequence (whole entry): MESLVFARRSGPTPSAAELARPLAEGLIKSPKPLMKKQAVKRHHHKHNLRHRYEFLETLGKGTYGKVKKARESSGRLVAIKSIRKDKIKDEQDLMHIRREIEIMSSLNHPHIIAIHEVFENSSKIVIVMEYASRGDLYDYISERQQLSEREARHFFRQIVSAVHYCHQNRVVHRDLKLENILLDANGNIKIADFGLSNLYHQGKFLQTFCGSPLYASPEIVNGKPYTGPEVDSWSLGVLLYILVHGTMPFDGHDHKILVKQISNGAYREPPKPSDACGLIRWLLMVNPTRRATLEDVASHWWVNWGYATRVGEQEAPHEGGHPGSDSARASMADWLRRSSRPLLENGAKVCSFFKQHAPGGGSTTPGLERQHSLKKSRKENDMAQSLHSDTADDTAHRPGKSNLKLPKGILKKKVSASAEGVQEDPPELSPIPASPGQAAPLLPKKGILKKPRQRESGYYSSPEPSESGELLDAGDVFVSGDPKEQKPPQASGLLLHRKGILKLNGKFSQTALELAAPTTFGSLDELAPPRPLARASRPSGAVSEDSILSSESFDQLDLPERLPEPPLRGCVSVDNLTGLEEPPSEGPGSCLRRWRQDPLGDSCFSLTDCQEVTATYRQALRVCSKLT
# [4] = target: Phosphatidylinositol 4,5-bisphosphate 3-kinase catalytic subunit beta isoform (Homo sapiens) (UniProt P42338); assay: Selectivity interaction (Adapta Assay) EUB0001632a PIK3CB; details: at 10 µM
# Phosphatidylinositol 4,5-bisphosphate 3-kinase catalytic subunit beta isoform (Homo sapiens), sequence (P42338 whole entry, looked up, canonical isoform): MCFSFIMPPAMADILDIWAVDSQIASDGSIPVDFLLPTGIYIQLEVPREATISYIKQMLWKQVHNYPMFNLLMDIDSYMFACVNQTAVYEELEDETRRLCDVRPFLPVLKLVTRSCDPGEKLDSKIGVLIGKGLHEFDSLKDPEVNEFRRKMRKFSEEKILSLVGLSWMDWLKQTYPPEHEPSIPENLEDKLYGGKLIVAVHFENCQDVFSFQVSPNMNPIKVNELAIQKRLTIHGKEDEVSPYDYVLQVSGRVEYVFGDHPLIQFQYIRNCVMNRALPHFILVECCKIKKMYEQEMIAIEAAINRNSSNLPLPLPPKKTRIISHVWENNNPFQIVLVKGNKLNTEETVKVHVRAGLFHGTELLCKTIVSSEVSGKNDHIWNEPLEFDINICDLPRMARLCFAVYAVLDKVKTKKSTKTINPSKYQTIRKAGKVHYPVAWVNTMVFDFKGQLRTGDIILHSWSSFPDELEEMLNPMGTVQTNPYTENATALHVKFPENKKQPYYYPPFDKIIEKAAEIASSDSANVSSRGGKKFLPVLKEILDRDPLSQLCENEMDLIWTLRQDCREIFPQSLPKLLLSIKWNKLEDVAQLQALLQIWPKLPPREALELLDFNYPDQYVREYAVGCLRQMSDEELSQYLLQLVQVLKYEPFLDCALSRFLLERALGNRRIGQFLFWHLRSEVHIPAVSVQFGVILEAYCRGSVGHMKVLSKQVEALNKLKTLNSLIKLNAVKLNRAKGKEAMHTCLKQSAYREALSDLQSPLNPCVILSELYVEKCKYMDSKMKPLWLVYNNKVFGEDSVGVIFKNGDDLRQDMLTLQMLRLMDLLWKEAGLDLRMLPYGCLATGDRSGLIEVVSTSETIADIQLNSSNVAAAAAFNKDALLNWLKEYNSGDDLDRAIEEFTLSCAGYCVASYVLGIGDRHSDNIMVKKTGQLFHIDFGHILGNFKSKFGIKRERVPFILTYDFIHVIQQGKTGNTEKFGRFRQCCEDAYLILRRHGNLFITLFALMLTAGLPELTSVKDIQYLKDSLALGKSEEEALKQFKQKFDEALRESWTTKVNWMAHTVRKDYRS
# [5] = target: Serine/threonine-protein kinase MARK2 (Homo sapiens) (UniProt Q7KZI7); assay: Selectivity interaction (KinomeScan (DiscoverX)) EUB0000666a MARK2; details: at 10 µM
# Serine/threonine-protein kinase MARK2 (Homo sapiens), sequence (Q7KZI7 whole entry): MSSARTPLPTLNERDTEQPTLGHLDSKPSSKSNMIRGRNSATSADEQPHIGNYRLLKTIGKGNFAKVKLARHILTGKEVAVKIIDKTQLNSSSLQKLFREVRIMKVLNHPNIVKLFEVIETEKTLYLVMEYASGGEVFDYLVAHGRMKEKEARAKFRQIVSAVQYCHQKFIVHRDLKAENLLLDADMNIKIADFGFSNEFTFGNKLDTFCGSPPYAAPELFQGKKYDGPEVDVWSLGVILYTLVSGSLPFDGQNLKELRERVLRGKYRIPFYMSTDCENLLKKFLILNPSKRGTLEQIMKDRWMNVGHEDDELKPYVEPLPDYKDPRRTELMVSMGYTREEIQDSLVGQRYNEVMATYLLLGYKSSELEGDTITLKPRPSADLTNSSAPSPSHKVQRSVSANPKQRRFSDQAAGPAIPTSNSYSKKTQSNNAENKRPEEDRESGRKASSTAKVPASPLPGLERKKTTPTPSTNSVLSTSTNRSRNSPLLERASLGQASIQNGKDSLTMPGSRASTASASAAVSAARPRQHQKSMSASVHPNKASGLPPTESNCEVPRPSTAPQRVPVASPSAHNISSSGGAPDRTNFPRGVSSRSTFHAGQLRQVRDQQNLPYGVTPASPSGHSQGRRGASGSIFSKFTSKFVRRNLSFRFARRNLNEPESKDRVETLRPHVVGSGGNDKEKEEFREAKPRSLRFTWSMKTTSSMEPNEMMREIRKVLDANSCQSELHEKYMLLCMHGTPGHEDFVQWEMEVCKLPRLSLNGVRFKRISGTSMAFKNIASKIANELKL
# [6] = target: T3, Serine/threonine-protein kinase haspin (Homo sapiens) (UniProt Q8TF76); assay: Selectivity interaction (Kinase panel (Invitrogen)) EUB0000639a GSG2; details: at 200 nM
# T3 sequence (whole entry): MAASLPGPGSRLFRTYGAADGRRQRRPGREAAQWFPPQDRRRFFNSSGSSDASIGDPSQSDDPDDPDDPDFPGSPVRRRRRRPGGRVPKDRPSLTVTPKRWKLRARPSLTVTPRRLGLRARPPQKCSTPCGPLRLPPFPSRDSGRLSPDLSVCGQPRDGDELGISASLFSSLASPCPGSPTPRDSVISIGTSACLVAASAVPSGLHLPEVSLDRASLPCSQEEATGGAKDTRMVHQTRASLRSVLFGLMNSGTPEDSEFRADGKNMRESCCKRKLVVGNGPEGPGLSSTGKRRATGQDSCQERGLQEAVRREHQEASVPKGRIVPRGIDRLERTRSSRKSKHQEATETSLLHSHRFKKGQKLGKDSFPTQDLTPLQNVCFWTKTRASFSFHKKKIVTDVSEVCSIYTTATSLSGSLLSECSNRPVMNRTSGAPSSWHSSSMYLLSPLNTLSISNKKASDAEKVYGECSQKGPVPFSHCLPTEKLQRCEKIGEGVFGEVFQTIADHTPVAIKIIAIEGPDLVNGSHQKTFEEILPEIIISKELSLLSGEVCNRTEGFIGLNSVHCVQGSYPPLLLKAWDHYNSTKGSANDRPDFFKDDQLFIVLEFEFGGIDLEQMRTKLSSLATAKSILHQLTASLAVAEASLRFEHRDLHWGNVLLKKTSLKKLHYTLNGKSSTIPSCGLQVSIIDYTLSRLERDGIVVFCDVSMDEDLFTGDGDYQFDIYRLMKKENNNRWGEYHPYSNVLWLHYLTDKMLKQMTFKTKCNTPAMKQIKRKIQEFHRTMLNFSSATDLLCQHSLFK
# [7] = target: RAC-gamma serine/threonine-protein kinase (Homo sapiens, UniProt Q9Y243); details: at 10 µM
# RAC-gamma serine/threonine-protein kinase, sequence (Q9Y243 whole entry): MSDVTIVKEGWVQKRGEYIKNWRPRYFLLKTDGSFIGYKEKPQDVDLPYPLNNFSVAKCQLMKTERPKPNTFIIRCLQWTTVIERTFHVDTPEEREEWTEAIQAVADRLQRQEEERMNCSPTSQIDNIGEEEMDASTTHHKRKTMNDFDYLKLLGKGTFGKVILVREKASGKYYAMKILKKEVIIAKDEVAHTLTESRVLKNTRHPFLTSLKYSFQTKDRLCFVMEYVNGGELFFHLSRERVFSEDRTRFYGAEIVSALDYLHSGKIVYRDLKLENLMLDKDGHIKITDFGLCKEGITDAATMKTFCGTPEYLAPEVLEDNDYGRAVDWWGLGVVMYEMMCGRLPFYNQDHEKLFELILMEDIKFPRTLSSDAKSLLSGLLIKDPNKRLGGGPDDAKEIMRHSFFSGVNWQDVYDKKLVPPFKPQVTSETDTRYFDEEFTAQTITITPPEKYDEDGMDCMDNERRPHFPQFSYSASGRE
smiles,measurement,setting,value
COCC(=O)NC/C=C/c1ccc2ncnc(Nc3ccc(Oc4ccc(C)nc4)c(C)c3)c2c1 [CP-724714],% of control,[1],100%
C=CC(=O)Nc1cc(-n2c(=O)ccc3cnc4ccc(-c5ccc(NS(C)(=O)=O)cc5)cc4c32)ccc1C,% of control,[2]; at 1 µM,100%
same,% of control,[2]; at 10 µM,100%
Cn1cc(-n2cnc3c(NCc4nc5cc(Cl)c(Cl)cc5[nH]4)nc(N4CCOCC4)nc32)cn1,% of inhibition,[3],-12.8%
same,% of inhibition,[4],11.6%
O=C(NOC[C@H](O)CO)c1ccc(F)c(F)c1Nc1ccc(I)cc1F,% of control,[5],100%
CC[C@@H]1[C@H](F)C(=O)N[C@@H]1COc1nccc2cc(C(N)=O)c(OC)cc12 [ZIMLOVISERTIB],% of inhibition,[6],41.1%
CCN(CC)CCCCNc1ncc2cc(-c3cc(OC)cc(OC)c3)c(NC(=O)NC(C)(C)C)nc2n1,% of control,[7],100%
